{
  "source": "paper PMC5087393",
  "about": "“A Toolbox of Genetically Encoded FRET-Based Biosensors for Rapid L-Lysine Analysis” (Sensors (Basel, Switzerland), 2016)",
  "origin": "cited, not measured here",
  "key": {"[1]": {"system": "LAO-binding protein of E. coli", "conditions": "read-out: Kd (equilibrium dialysis); without permutation and fluorescent proteins; 10 mM KPi buffer, pH 7.0, 50 mM NaCl"}, "[2]": {"target": "LAO-binding protein from S. typhimurium", "parameters": "method as in PMID 1400387", "conditions": "10 mM NaPi buffer, pH 7.0; read-out: Kd (equilibrium dialysis)"}},
  "data": [
    {"smiles": "N=C(N)NCCC[C@H](N)C(=O)O", "note": "[L-arginine]", "values": [
      {"measurement": "Kd", "setting": "[1]", "value": 1500, "unit": "nM"},
      {"measurement": "Kd", "setting": "[2]", "value": 14, "unit": "nM"}
    ]},
    {"smiles": "N[C@@H](Cc1c[nH]cn1)C(=O)O", "note": "[L-histidine]", "values": [
      {"measurement": "Kd", "setting": "[2]", "value": 500, "unit": "nM"}
    ]},
    {"smiles": "NCCCC[C@H](N)C(=O)O", "note": "[L-lysine]", "values": [
      {"measurement": "Kd", "setting": "[1]", "value": 3000, "unit": "nM"},
      {"measurement": "Kd", "setting": "[2]", "value": 15, "unit": "nM"}
    ]}
  ]
}
